From patent publication US20130178453A1, “Cannabinoid Agonists” (priority 2010, published 2013)
Read-outs that look alike come from different tables or passages of the source.

How the values were obtained:
hCB1 = hCB1 (Homo sapiens, UniProt P21554); assay: hCB1 radioligand binding assay ([3H]-CP 55,940 displacement); conditions: HEK membranes
From the text: (§1) cDNA expression clones for human CB 1 (hCB1, Genbank Accession No. AY225225) and human CB2 (hCB2, Genbank Accession No. AY242132) expressed in vector pcDNA3.1+ were purchased from UMR cDNA Resource Center, Rolla, Mo. (Clone ID CNR01L000 for hCB1; CNR0200000 for hCB2).
Stable, HEK-293-derived cell lines that recombinantly express hCB1 or hCB2 were established. In brief, the clone hCB1 (CNR1L) or hCB2 (CNR2) was transfected into human embryonic kidney cells (HEK-293) using Lipofectamine 2000 (Gibco, Cat#11668-019) according to the manufacturer's protocol. Transfected clones were isolated by single colony purification and clones were screened for receptor expression using a whole cell, ^3H—CP 55,940 radioligand binding assay. HEK-293 stable cells were maintained in Dulbecco's modified Eagles medium (DMEM) containing 10% fetal bovine serum, 2 mM L-glutamine and 0.5 mg/mL G-418.
(§2) Membranes were isolated from transfected cells as follows. Monolayers of cultured cells were washed twice with phosphate-buffered saline (PBS). Cells were scraped into 20 mM HEPES, pH 7.4, 10 mM EDTA containing complete cocktail protease inhibitors (Roche, Catalog #11 697 498 001), and were homogenized by an electric-powered mechanical probe homogenizer (Omni GLH; probe G7-195S) for 40 seconds at 7000 rpm. Homogenates were centrifuged 10 minutes at 1000×g at 4° C. The supernatant was collected and was centrifuged for 1 hour at 40,000×g. The supernatant was then decanted and the resulting pellet was re-suspended in 20 mM HEPES, pH 7.4, 5 mM MgCl2, 1 mM EDTA, 10% sucrose with complete cocktail protease inhibitors. Protein concentration of membrane suspensions were measured by Bradford Protein Assay using bovine serum albumin as the standard (BioRad catalog #500-0006). Protein concentrations of membrane suspensions were adjusted with the final buffer in the range of 5 to 10 mg/mL and were stored at −80° C. until further use.
Radioligand binding assays were performed by incubating membranes (2-10 μg protein) prepared from HEK-293 cells expressing recombinant human cannabinoid receptors, CB 1 or CB2, at room temperature with 0.5 nM cannabinoid receptor agonist, [^3H]-CP 55,940 (Perkin Elmer, catalog #NET 1051) in 0.2 mL of binding buffer (50 mM Tris-HCl, pH 7.5, 5 mM MgCl2, 2.5 mM EDTA) and 0.1% fatty acid free bovine serum albumin (Sigma Cat. #A0821) for 90 minutes. A rapid filtration technique using Millipore FB filter plates (Catalog #MADVNOB) and filtration apparatus (Millipore system Catalog MAVM0960R) with vacuum aspiration was used to harvest and rinse labeled membranes (8 times with 0.2 mL of chilled binding buffer). The radioactivity bound to the filters was counted with 0.05 mL of liquid scintillant (UltraGold MV, PerkinElmer catalog #6013159) in a scintillation counter (Perkin Elmer Microbeta instrument). Nonspecific binding was determined in the presence of unlabeled 1 μM CP 55,940 (Sigma Aldrich, catalog #C1112). Binding data were analyzed using GraphPad Prism (GraphPad Software, Inc. San Diego, Calif.).

hCB2 [1] = target: T1, hCB2 (Homo sapiens, UniProt P34972); assay: hCB2 cAMP agonist assay (HEK-293 cells); format: cell-based
T1 sequence (P34972 whole entry): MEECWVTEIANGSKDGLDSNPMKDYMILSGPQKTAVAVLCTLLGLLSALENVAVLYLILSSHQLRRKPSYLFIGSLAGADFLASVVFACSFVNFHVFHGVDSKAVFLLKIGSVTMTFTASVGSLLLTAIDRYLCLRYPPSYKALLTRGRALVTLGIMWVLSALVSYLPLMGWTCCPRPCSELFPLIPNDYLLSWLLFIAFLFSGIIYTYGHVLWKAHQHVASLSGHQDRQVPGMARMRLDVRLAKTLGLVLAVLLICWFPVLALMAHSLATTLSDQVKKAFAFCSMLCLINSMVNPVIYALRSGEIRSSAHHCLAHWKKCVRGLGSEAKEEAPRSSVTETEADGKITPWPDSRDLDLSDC
Method: as §1
cAMP assays were performed in HEK-293 cells stably expressing human CB 1 or CB2 receptors. […] Cells suspensions were centrifuged and the cells were washed once with PBS, were centrifuged again, and the cells were resuspended in HBSS (Hank's Balanced Salt Solution, Cellgro, Cat #21-022-CV) solution containing 10 mM HEPES and 0.1% fatty acid free BSA (Sigma, Cat #A0281). Cell suspensions were prepared at 1,500,000 cells per mL. Stock solutions of test substances (10 mM) in DMSO were diluted to 1 mM using 30% DMSO as diluent. Test substances of solutions (1 mM) were further diluted down to 3× of final assay concentrations in the above HBSS buffer containing 0.1% BSA in the presence of 90 uM forskolin (Sigma Cat#F6886). To perform the assay, 20 μL of cell suspension (1,500,000 cells/mL) were added to each well in 96 well plate and treated with 10 μL test substance solution diluted as described above. Cells and compounds were incubated at 37° C. for 30 minutes. Cells were lysed and cAMP concentration was measured using DiscoveRx-XS+ cAMP assay kit (DiscoveRx Corporation Ltd., Fremont, Calif., USA, Cat #90-0075-03), following the manufacturer's protocol. GraphPad Prism software was used to calculate EC50 values using sigmoidal dose response curve fitting. The maximal amount of cAMP produced by forskolin was defined as 100%.

hCB2 [2] = target: T1, hCB2; assay: hCB2 radioligand binding assay ([3H]-CP 55,940 displacement); conditions: HEK membranes
Method: as §1
as §2, with “Cells were scraped into 20 mM HEPES, pH 7.4, 10 mM EDTA containing complete cocktail protease inhibitors (Roche, Catalog #11 697 498 001), and were homogenized by an electric-powered mechanical probe homogenizer (Omni GLH; probe G7-195S) for 40 seconds at 7000 rpm.” left out
A rapid filtration technique using Millipore FB filter plates (Catalog #MADVNOB) and filtration apparatus (Millipore system Catalog MAVM0960R) with vacuum aspiration was used to harvest and rinse labeled membranes (8 times with 0.2 mL of chilled binding buffer). […] Binding data were analyzed using GraphPad Prism (GraphPad Software, Inc. San Diego, Calif.).

hCB2 [3] = target: T1, hCB2; assay: hCB2 GTPγS agonist assay (HEK-293 membranes); format: biochemical
Method: as §1
as §2, with “Cells were scraped into 20 mM HEPES, pH 7.4, 10 mM EDTA containing complete cocktail protease inhibitors (Roche, Catalog #11 697 498 001), and were homogenized by an electric-powered mechanical probe homogenizer (Omni GLH; probe G7-195S) for 40 seconds at 7000 rpm.” left out
^35S GTPγS binding assays were performed by incubating recombinant cell membranes prepared above (5 μg) in the presence of scintillation proximity assay beads (SPA beads, Catalog #RPNQ0252 GE Healthcare, Buckinghamshire, England) in GTPγS binding buffer [50 mM HEPES (pH 7.4), 100 mM NaCl, 5 mM MgCl2, 0.001% saponin (Sigma catalog #S4521)] supplemented with 20 uM GDP (Sigma catalog #G7127) in the presence or absence of test compound. The reaction was carried out in 96-well microplates with 0.1 nM [^35S]GTPγS (specific activity=1250 Ci/mmol; Perkin Elmer catalog #NEG030X250UC) in a final volume of 100 μL. After a 90 min room temperature incubation, the reaction was analyzed using a scintillation counter (Perkin Elmer Microbeta instrument). Binding data were analyzed using GraphPad Prism.

[4] = cAMP agonist, HEK, 96-well, read-out: hCB2 EC50 (cAMP ag, nM, HEK (96-well))
[5] = GTPγS agonist, HEK membranes, read-out: hCB2 EC50 (GTPyS ag, nM, HEK)

Sequence of hCB1 (P21554 whole entry): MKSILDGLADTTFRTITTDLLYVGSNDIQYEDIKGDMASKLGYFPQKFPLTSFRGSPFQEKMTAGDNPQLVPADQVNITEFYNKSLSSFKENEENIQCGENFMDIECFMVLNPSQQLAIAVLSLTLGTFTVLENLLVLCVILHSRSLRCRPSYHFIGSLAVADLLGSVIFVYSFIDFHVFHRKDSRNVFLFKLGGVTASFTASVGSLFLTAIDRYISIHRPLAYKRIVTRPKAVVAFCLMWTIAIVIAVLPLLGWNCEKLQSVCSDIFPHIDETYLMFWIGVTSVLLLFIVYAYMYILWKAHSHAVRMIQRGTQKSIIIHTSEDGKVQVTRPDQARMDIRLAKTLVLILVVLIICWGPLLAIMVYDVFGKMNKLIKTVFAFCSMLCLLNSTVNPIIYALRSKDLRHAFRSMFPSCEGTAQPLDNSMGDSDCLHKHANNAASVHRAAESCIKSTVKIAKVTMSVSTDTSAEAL

SMILES | IC50 (hCB1; hCB1 IC50 (CP displ, nM, HEK)) [nM] | EC50 (hCB2 [1]) [nM] | IC50 (hCB2 [2]; hCB2 IC50 (CP displ, nM, HEK)) [nM] | EC50 (hCB2 [3]) [nM] | EC50 (hCB2 [1]; [4]) [nM] | EC50 (hCB2 [3]; [5]) [nM] | hCB1 IC50 (CP displ, nM, HEK) (hCB1) | IC50 (hCB1; read-out: hCB1 IC50 (CP displ, nM, HEK)) [nM] | IC50 (hCB2 [2]; read-out: hCB2 IC50 (CP displ, nM, HEK)) [nM]
CCCn1c(C)c(C(=O)c2cc3sccc3s2)c2ccccc21 [Compound I-20] | 1000 to 10000 | 100 to 1000 | 1000 to 10000 | 100 to 1000 |  |  |  |  | 
CCCn1c(C)c(C(=O)c2cc3ccsc3s2)c2ccccc21 [Compound I-46] | 1000 to 10000 | 100 to 1000 | 100 to 1000 | 100 to 1000 |  |  |  |  | 
CCCn1c(C)c(C(=O)c2cc3ccsc3n2CCC)c2cc(OC)ccc21 [Compound I-61] | 100 to 1000 | 100 to 1000 | < 100 |  |  |  |  |  | 
CCCn1c(C)c(C(=O)c2cc3cc(C)[nH]c3s2)c2ccccc21 [Compound I-75] | > 10000 |  | 1000 to 10000 |  |  |  |  |  | 
CCCn1c(C)c(C(=O)c2cc3ccsc3n2CC)c2c1CCCCC2 [Compound I-87] | 1000 to 10000 |  | < 100 |  | < 100 | < 100 |  |  | 
CCCn1c(C(=O)c2c(C)n(CC)c3ccccc23)cc2ccsc21 [Compound I-50] | 1000 to 10000 | < 100 | < 100 | < 100 |  |  |  |  | 
C=Cn1c(C)c(C(=O)c2cc3ccsc3n2CC)c2ccccc21 [Compound I-24] |  |  | 100 to 1000 |  | < 100 | 100 to 1000 | B/C |  | 
CCCn1c(C)c(C(=O)c2c(C)n(CCC)c3sccc23)c2ccccc21 [Compound I-7] | 1000 to 10000 |  | 100 to 1000 |  |  |  |  |  | 
CCCn1c(C)c(C(=O)c2cc3ccsc3n2CCC)c2cc(Cl)ccc21 [Compound I-52] | 1000 to 10000 | 100 to 1000 | 100 to 1000 | 100 to 1000 |  |  |  |  | 
CCn1c(C(=O)c2c(C)n(CCCCl)c3ccccc23)cc2ccsc21 [Compound I-18] | 100 to 1000 | < 100 | < 100 | < 100 |  |  |  |  | 
CCCn1c(C)c(C(=O)c2cc3cc(Cl)sc3[nH]2)c2ccccc21 [Compound I-48] | 1000 to 10000 | 100 to 1000 | 100 to 1000 | 100 to 1000 |  |  |  |  | 
CCCn1c(C)c(C(=O)c2cc3occc3[nH]2)c2ccccc21 [Compound I-71] | > 10000 |  | 1000 to 10000 |  |  |  |  |  | 
CCCn1c(C(=O)c2c(C)n(CCN3CCCCC3)c3ccccc23)cc2ccsc21 [Compound I-59] | 100 to 1000 | < 100 | < 100 | 100 to 1000 |  |  |  |  | 
CCCn1c(C(=O)c2c(C)[nH]c3sccc23)cc2ccccc21 [Compound I-13] |  |  |  |  |  |  |  | > 10000 | > 10000
CCn1c(C(=O)c2c[nH]c3ccccc23)cc2ccsc21 [Compound I-37] | > 10000 |  | 100 to 1000 |  | < 100 | 100 to 1000 |  |  | 
CCCn1c(C)c(C(=O)c2cc3ccsc3n2CC)c2c1CCC(C)(C)C2 [Compound I-65] | 1000 to 10000 |  | < 100 |  | < 100 | < 100 |  |  | 
CCCn1c(C)c(C(=O)c2cc3ccsc3n2C)c2ccccc21 [Compound I-55] | > 10000 | < 100 | 100 to 1000 | 100 to 1000 |  |  |  |  | 
CCCn1c(C(=O)c2c[nH]c3ccccc23)cc2ccsc21 [Compound I-64] | > 10000 |  | 100 to 1000 |  | 100 to 1000 | 100 to 1000 |  |  | 
Cc1c(C(=O)c2cccc3ccccc23)c2sccc2n1CCN1CCOCC1 [Compound I-1] | 100 to 1000 |  | < 100 | < 100 |  |  |  |  | 
CCCn1c(C)c(C(=O)c2cc3cc(C)n(CCC)c3s2)c2ccccc21 [Compound I-63] |  |  | 100 to 1000 |  |  |  |  |  | 
Cc1c(C(=O)c2cccc3ccccc23)c2ccsc2n1CCN1CCOCC1 [Compound I-5] | 100 to 1000 |  | < 100 | < 100 |  |  |  |  | 
CCCn1c(C(=O)c2c[nH]c3ncccc23)cc2ccsc21 [Compound I-43] | > 10000 |  | 1000 to 10000 |  |  | 100 to 1000 |  |  | 
CCCn1c(C)c(C(=O)c2cc3ccsc3n2CCC)c2c1CCC(C)(C)C2 [Compound I-35] | 100 to 1000 |  | < 100 |  | < 100 | < 100 |  |  | 
CCCn1c(C)c(C(=O)c2cc3ccsc3n2CC)c2ccccc21 [Compound I-54] | 1000 to 10000 | < 100 | < 100 | < 100 |  |  |  |  | 
CCCn1c(C)c(C(=O)c2cccc3ccccc23)c2ccsc21 [Compound I-2] | 1000 to 10000 |  | 100 to 1000 | 100 to 1000 |  |  |  |  | 
Cc1[nH]c2ccsc2c1C(=O)c1cccc2ccccc12 [Compound I-4] | > 10000 |  | 1000 to 10000 |  |  | 1000 to 10000 |  |  | 
Cc1c(C(=O)c2cc3ccccc3[nH]2)c2ccsc2n1CCN1CCOCC1 [Compound I-10] | 1000 to 10000 |  | 100 to 1000 |  |  |  |  |  | 
CCn1c(C(=O)c2c(C)n(CCC(=O)O)c3ccccc23)cc2ccsc21 [Compound I-27, 3-(3-(6-ethyl-6H-thieno[2,3-b]pyrrole-5-carbonyl)-2-methyl-1H-indol-1-yl)propanoic acid] | > 10000 |  | 100 to 1000 |  | 100 to 1000 |  |  |  | 
CCCn1c(C)c(C(=O)c2cccc3ccccc23)c2sccc21 [Compound I-12] | 1000 to 10000 |  | 100 to 1000 | < 100 |  |  |  |  | 
Cc1[nH]c2sccc2c1C(=O)c1cccc2ccccc12 [Compound I-3] | > 10000 |  | 1000 to 10000 | < 100 |  |  |  |  | 
